Laboratory results as given in patent US20140107109A1, “AMINO-DIHYDROTHIAZINE AND AMINO-DIOXIDO DIHYDROTHIAZINE COMPOUNDS AS BETA-SECRETASE ANTAGONISTS AND METHODS OF USE” (Amgen Inc., priority 2012, published 2014).
pIC50: −log10 of the molar value. Where two headings read alike, the source gives them in different places.

Columns and labels:
[1] = biological target: Beta Secretase enzyme (BACE1) (Homo sapiens, UniProt P56817); assay: In vitro enzymatic BACE FRET assay; assay type: biochemical; conditions: read-out: BACE1 FRET assay IC50
Outline: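 Readout: dequenched fluorescence (ex 488 nm/[…]) after neutralizing with Tris buffer. Reactions, begun by adding 50 nM quenched peptide substrate spanning the BACE cleavage site, were incubated one hour at pH 4.2 in 0.05 M acetate with 100 uM genapol and 10% final DMSO.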

[2] = test system: Aβ40 in conditioned medium of cells stably expressing Amyloid Precursor Protein (APP); assay: In vitro BACE cell-based assay (HEK cell assay), Aβ40 sandwich ELISA
Outline: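 Aβ40 in conditioned medium was quantified by time-resolved fluorescence sandwich ELISA (pAb40 capture 3 h at 4 °C, biotin-6E10 detection 2 h at 4 °C) after 24 h compound exposure of APP-expressing cells. Doses spanned 10 points from 100 μM or 10 μM top, 0.1% DMSO; IC50 was derived from percent of control.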

Cathepsin D (Cat D) = biological target: T1, Cathepsin D (Cat D) (Homo sapiens, UniProt P07339); assay: In vitro enzymatic Cathepsin D (Cat D) FRET assay; assay type: biochemical; conditions: read-out: CatD IC50
T1 construct: Recombinant Cat D was expressed in CHO cells; made in house; host or cells: CHO cells
Outline: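 FRET read-out: a fluorophore/quencher-labelled peptide substrate is cleaved by 9 nM Cat D (recombinant, CHO-expressed) following a one-hour preincubation with inhibitor dilutions in DMSO. Tris buffer added to neutralize pH ends the reaction before fluorescence measurement.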

[3] = Homo sapiens, HEK293, average IC50, cell assay
[4] = Homo sapiens, HEK293, average IC50, HEK cell assay
[5] = Homo sapiens, HEK293, Aβ40, 24 h incubation
[6] = Homo sapiens, HEK293, average IC50, HEK cells

T1 sequence (P07339 65-412, species assumed): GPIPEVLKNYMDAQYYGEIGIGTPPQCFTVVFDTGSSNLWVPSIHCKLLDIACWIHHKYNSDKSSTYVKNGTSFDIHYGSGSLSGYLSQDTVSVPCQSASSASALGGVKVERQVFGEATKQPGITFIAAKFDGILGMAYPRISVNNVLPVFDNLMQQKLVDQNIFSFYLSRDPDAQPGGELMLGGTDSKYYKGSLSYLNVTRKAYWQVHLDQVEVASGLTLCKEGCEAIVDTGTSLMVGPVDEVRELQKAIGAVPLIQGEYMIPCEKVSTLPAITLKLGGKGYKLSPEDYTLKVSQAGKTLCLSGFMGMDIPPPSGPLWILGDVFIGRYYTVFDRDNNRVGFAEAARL
Sequence of Beta Secretase enzyme (BACE1) (P56817 46-501): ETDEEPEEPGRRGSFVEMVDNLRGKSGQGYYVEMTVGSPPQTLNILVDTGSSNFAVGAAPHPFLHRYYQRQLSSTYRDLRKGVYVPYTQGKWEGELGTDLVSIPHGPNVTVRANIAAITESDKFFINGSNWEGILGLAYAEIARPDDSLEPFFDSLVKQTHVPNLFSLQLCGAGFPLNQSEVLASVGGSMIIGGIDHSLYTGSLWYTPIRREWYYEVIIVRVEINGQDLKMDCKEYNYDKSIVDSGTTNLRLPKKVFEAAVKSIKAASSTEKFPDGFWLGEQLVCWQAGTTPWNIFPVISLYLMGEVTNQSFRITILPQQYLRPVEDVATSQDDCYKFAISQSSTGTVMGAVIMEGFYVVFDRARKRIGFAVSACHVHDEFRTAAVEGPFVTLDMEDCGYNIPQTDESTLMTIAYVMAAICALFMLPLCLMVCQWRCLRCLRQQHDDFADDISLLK

Compound | pIC50 ([1]; average IC50, enzyme assay) | pIC50 (Cathepsin D (Cat D)) | pIC50 [1] | also measured
Cc1cc(OCC(F)(F)F)cnc1C(=O)Nc1cnc(F)c([C@]2(C)CS(=O)(=O)C3(CCC3)C(N)=N2)c1 [Example 350, N-(5-((7R)-9-amino-7-methyl-5,5-dioxido-5-thia-8-azaspiro[3.5]non-8-en-7-yl)-6-fluoro-3-pyridinyl)-3-methyl-5-(2,2,2-trifluoroethoxy)-2-pyridinecarboxamide] | 8.22 | < 3.40 |  | pIC50 [2, 4]: 7.46
C[C@@]1(c2cc(NC(=O)c3ccc(Cl)cn3)ccc2F)CS(=O)(=O)C2(CCC2)C(N)=N1 [Example 416, N-(3-((7R)-9-amino-7-methyl-5,5-dioxido-5-thia-8-azaspiro[3.5]non-8-en-7-yl)-4-fluorophenyl)-5-chloro-2-pyridinecarboxamide] |  | 4.23 | 8.63 | pIC50 ([2]; Homo sapiens, HEK293): 8.23
N#Cc1cnc2c(Nc3ccc(F)c([C@]4(CF)CS(=O)(=O)C5(CCC5)C(N)=N4)c3)ncc(F)c2c1 [Example 241, 8-((3-((7S)-9-amino-7-(fluoromethyl)-5,5-dioxido-5-thia-8-azaspiro[3.5]non-8-en-7-yl)-4-fluorophenyl)amino)-5-fluoro-1,7-naphthyridine-3-carbonitrile] | 9.05 | < 5.31 |  | pIC50 [2, 3]: 7.32
COc1cnc2c(Nc3ccc(F)c([C@@]45COC[C@@H]4S(=O)(=O)C(C)(C)C(N)=N5)c3)nccc2n1 [Example 247, N-(3-((4aR,7aR)-3-amino-2,2-dimethyl-1,1-dioxido-7,7a-dihydro-2H-furo[3,4-b][1,4]thiazin-4a(5H)-yl)-4-fluorophenyl)-2-methoxypyrido[3,4-b]pyrazin-5-amine] | 6.15 | 3.32 |  | pIC50 [2, 3]: 5.55
Cc1cc(Cl)cnc1C(=O)Nc1ccc(F)c([C@@]2(CF)CS(=O)(=O)C3(CC3)C(N)=N2)c1 [Example 215, N-(3-((6R)-8-amino-6-(fluoromethyl)-4,4-dioxido-4-thia-7-azaspiro[2.5]oct-7-en-6-yl)-4-fluorophenyl)-5-chloro-3-methyl-2-pyridinecarboxamide] |  | 3.36 |  | pIC50 ([1]; average IC50): 6.67; pIC50 [2, 6]: 6.04
COc1cnc(C(=O)Nc2ccc(F)c(C3(CF)CS(=O)(=O)C(C)(C)C(N)=N3)c2)cn1 (stereo not drawn) [Example 31, N-(3-(-5-amino-3-(fluoromethyl)-6,6-dimethyl-1,1-dioxido-3,6-dihydro-2H-1,4-thiazin-3-yl)-4-fluorophenyl)-5-methoxy-2-pyrazinecarboxamide] |  | < 3.40 | 8.42 | pIC50 [2, 5]: 7.55
Cc1cnc(C(=O)Nc2ccc(F)c([C@]3(C)CS(=O)(=O)C(C)(C)C(N)=N3)c2)cn1 [Example 110, (R)—N-(3-(5-amino-3,6,6-trimethyl-1,1-dioxido-3,6-dihydro-2H-1,4-thiazin-3-yl)-4-fluorophenyl)-5-methylpyrazine-2-carboxamide] |  | 2.74 | 7.69 | pIC50 ([2]; Homo sapiens, HEK293): 7.84
CC1(C)C(N)=N[C@](C)(c2cc(NC(=O)c3ncc(Cl)cc3F)ccc2F)CS1(=O)=O [Example 24, N-(3-((3R)-5-amino-3,6,6-trimethyl-1,1-dioxido-3,6-dihydro-2H-1,4-thiazin-3-yl)-4-fluorophenyl)-5-chloro-3-fluoro-2-pyridinecarboxamide] |  | < 3.40 | 9.22 | pIC50 [2, 5]: 8.43
COc1ccc(C(=O)Nc2ccc(F)c([C@]3(CF)CS(=O)(=O)C(C)(C)C(N)=N3)c2)nc1 [Example 457, N-(3-((3S)-5-amino-3-(fluoromethyl)-6,6-dimethyl-1,1-dioxido-3,6-dihydro-2H-1,4-thiazin-3-yl)-4-fluorophenyl)-5-methoxy-2-pyridinecarboxamide] |  | 3.09 |  | pIC50 ([1]; average IC50): 9.19; pIC50 [2, 6]: 7.89
COc1ccc(C(=O)Nc2ccc(F)c([C@]3(C)CS(=O)(=O)C(C)(C)C(N)=N3)c2)nc1 [Example 22, N-(3-((3R)-5-amino-3,6,6-trimethyl-1,1-dioxido-3,6-dihydro-2H-1,4-thiazin-3-yl)-4-fluorophenyl)-5-methoxy-2-pyridinecarboxamide] |  | < 3.40 | 8.82 | pIC50 [2, 5]: 8.51
C[C@]1(F)C(N)=N[C@](C)(c2cc(NC(=O)c3cnc(C(F)(F)F)cn3)ccc2F)CS1(=O)=O [Example 323, N-(3-((3R,6R)-5-amino-6-fluoro-3,6-dimethyl-1,1-dioxido-3,6-dihydro-2H-1,4-thiazin-3-yl)-4-fluorophenyl)-5-(trifluoromethyl)-2-pyrazinecarboxamide] | 8.41 | 3.03 |  | pIC50 [2, 4]: 6.54

Now from value to compound, other results behind:

pIC50 ([1]; average IC50, enzyme assay) | pIC50 (Cathepsin D (Cat D)) | Compound | pIC50 [1] | also measured
8.34 | 3.62 | CC1(C)C(N)=N[C@](C)(c2cc(Nc3nccc4nc(OCC(F)F)cnc34)ccc2F)CS1(=O)=O [Example 444, N-(3-((3R)-5-amino-3,6,6-trimethyl-1,1-dioxido-3,6-dihydro-2H-1,4-thiazin-3-yl)-4-fluorophenyl)-2-(2,2-difluoroethoxy)pyrido[3,4-b]pyrazin-5-amine] |  | pIC50 [2, 3]: 8.08
 | 4.09 | COc1cnc2c(Nc3ccc(F)c([C@]4(C)CS(=O)(=O)C(C)(C)C(N)=N4)c3)ncnc2c1 [Example 51, N-(3-((3R)-5-amino-3,6,6-trimethyl-1,1-dioxido-3,6-dihydro-2H-1,4-thiazin-3-yl)-4-fluorophenyl)-7-methoxypyrido[3,2-d]pyrimidin-4-amine] | 8.57 | pIC50 [2, 5]: 8.52
9.43 | 4.23 | CC1(C)C(N)=N[C@](CF)(c2cc(Nc3nccc4cc(Cl)cnc34)ccc2F)CS1(=O)=O [Example 448, N-(3-((3S)-5-amino-3-(fluoromethyl)-6,6-dimethyl-1,1-dioxido-3,6-dihydro-2H-1,4-thiazin-3-yl)-4-fluorophenyl)-3-chloro-1,7-naphthyridin-8-amine] |  | pIC50 [2, 3]: 7.55
8.83 | 3.92 | COc1cnc2c(Nc3ccc(F)c([C@]4(CF)CS(=O)(=O)C5(CCC5)C(N)=N4)c3)ncnc2c1 [Example 242, N-(3-((7S)-9-amino-7-(fluoromethyl)-5,5-dioxido-5-thia-8-azaspiro[3.5]non-8-en-7-yl)-4-fluorophenyl)-7-methoxypyrido[3,2-d]pyrimidin-4-amine] |  | pIC50 [2, 3]: 7.85
 | 4.75 | CCc1cc(Oc2ccc(F)c([C@]3(C)CS(=O)(=O)C(C)(C)C(N)=N3)c2)ccc1Cl [Example 100, (R)-5-amino-3-(5-(4-chloro-3-ethylphenoxy)-2-fluorophenyl)-3,6,6-trimethyl-3,6-dihydro-2H-1,4-thiazine 1,1-dioxide] | 5.81 | pIC50 [2, 5]: < 5.00
7.42 | 3.60 | CC1(C)C(N)=N[C@](C)(c2cc(NC(=O)c3ccc4ccccc4n3)ccc2F)CS1(=O)=O [Example 315, N-(3-((3R)-5-amino-3,6,6-trimethyl-1,1-dioxido-3,6-dihydro-2H-1,4-thiazin-3-yl)-4-fluorophenyl)-2-quinolinecarboxamide] |  | pIC50 [2, 4]: 7.60
6.36 | 3.99 | Cc1c(CNc2cc([C@]3(C)CS(=O)(=O)C(C)(C)C(N)=N3)c(F)cn2)nc2ccc(Cl)cn12 [Example 145, (R)-5-amino-3-(2-(((6-chloro-3-methylimidazo[1,2-a]pyridin-2-yl)methyl)amino)-5-fluoropyridin-4-yl)-3,6,6-trimethyl-3,6-dihydro-2H-1,4-thiazine-1,1-dioxide] |  | pIC50 [2, 4]: 6.39
9.10 | 3.39 | CC1(C)C(N)=N[C@](C)(c2cc(NC(=O)c3ncc(Cl)cc3Br)ccc2F)CS1(=O)=O [Example 352, N-(3-((3R)-5-amino-3,6,6-trimethyl-1,1-dioxido-3,6-dihydro-2H-1,4-thiazin-3-yl)-4-fluorophenyl)-3-bromo-5-chloro-2-pyridinecarboxamide] |  | pIC50 [2, 4]: 9.05
 | 3.81 | Cc1cc(OC(F)F)cnc1C(=O)Nc1cnc(F)c([C@]2(C)CS(=O)(=O)C(C)(C)C(N)=N2)c1 [Example 400, N-(5-((3R)-5-amino-3,6,6-trimethyl-1,1-dioxido-3,6-dihydro-2H-1,4-thiazin-3-yl)-6-fluoro-3-pyridinyl)-5-(difluoromethoxy)-3-methyl-2-pyridinecarboxamide] | 8.85 | pIC50 ([2]; Homo sapiens, HEK293): 8.05
 | 4.20 | C[C@@]1(c2cc(Nc3nccc4cc(Cl)cnc34)ccc2F)CS(=O)(=O)C2(CCOC2)C(N)=N1 (mixture of isomers) [Example 182, (8R)-10-amino-8-(5-((3-chloro-1,7-naphthyridin-8-yl)amino)-2-fluorophenyl)-8-methyl-2-oxa-6-thia-9-azaspiro[4.5]dec-9-ene 6,6-dioxide] |  | pIC50 ([1]; average IC50): 8.66; pIC50 [2, 6]: 7.51
8.82 | 3.77 | N-(3-((4aR,7aS)-3-amino-2,2-dimethyl-1,1-dioxido-7,7a-dihydro-2H-furo[3,4-b][1,4]thiazin-4a(5H)-yl)-4-fluorophenyl)-5-chloro-2-pyridinecarboxamide, N-(3-((4aS,7aR)-3-amino-2,2-dimethyl-1,1-dioxido-7,7a-dihydro-2H-furo[3,4-b][1,4]thiazin-4a(5H)-yl)-4-fluorophenyl)-5-chloro-2-pyridinecarboxamide [Example 426] |  | pIC50 ([2]; average IC50, cell assay): 7.87
